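Growth conditions: 96-well plates. Treatment: test compound, 48 hours, 5 concentrations. Analysis: linear interpolation between bracketing concentrations; unreached endpoints set to highest concentration. GI50 marks 50% less growth.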 The source made the active and inactive calls. Cut-off read from the data, not from the text of the source: active = GI50 up to about 1.1 µM and inactive = higher.
Experiments:
Test in all cases: growth of human tumour cells (NCI), 48 h
NCI-H23 = tested on: NCI-H23
OVCAR-8 = tested on: OVCAR-8
DMS-114 = tested on: DMS-114
HT-29 = tested on: HT-29
A498 = tested on: A498
HOP-62 = tested on: HOP-62
OVCAR-5 = tested on: OVCAR-5
K562 = tested on: K562
UACC-257 = tested on: UACC-257
HL-60 = tested on: HL-60
SF-268 = tested on: SF-268
NCI-H460 = tested on: NCI-H460
UO-31 = tested on: UO-31
DMS-273 = tested on: DMS-273
SK-MEL-2 = tested on: SK-MEL-2
SK-OV-3 = tested on: SK-OV-3
RXF 393 = tested on: RXF 393
SF-539 = tested on: SF-539
SN12C = tested on: SN12C
UACC-62 = tested on: UACC-62
LOX IMVI = tested on: LOX IMVI
NCI-H522 = tested on: NCI-H522
OVCAR-4 = tested on: OVCAR-4
MCF7 = tested on: MCF7
SK-MEL-28 = tested on: SK-MEL-28
M19-MEL = tested on: M19-MEL
HOP-18 = tested on: HOP-18
KM-20L2 = tested on: KM-20L2
CCRF-CEM = tested on: CCRF-CEM
HCC 2998 = tested on: HCC 2998
HOP-92 = tested on: HOP-92
SW-620 = tested on: SW-620
HCT-116 = tested on: HCT-116
EKVX = tested on: EKVX
XF498 = tested on: XF498
SK-MEL-5 = tested on: SK-MEL-5
U-251 = tested on: U-251
SNB-78 = tested on: SNB-78
COLO 205 = tested on: COLO 205
CAKI-1 = tested on: CAKI-1
Malme-3M = tested on: Malme-3M
HCT-15 = tested on: HCT-15
NCI-H226 = tested on: NCI-H226
MOLT-4 = tested on: MOLT-4
SF-295 = tested on: SF-295
NCI/ADR-RES = tested on: NCI/ADR-RES
SNB-19 = tested on: SNB-19
KM12 = tested on: KM12
A549 = tested on: A549
OVCAR-3 = tested on: OVCAR-3
DLD-1 = tested on: DLD-1
SNB-75 = tested on: SNB-75
RPMI-8226 = tested on: RPMI-8226
IGROV-1 = tested on: IGROV-1

`COc1ccc2c(c1)CCCc1cn[nH]c1-2` was tested, and the GI50 (NCI-H23) was > 100 µM (inactive), the GI50 (OVCAR-8) was > 100 µM (inactive) and the GI50 (DMS-114) was > 100 µM (inactive). For the same compound, the GI50 (HT-29) was > 100 µM (inactive), the GI50 (A498) was > 100 µM (inactive) and the GI50 (HOP-62) was > 100 µM (inactive). The GI50 (OVCAR-5) was > 100 µM (inactive), the GI50 (K562) was > 65.8 µM (inactive) and the GI50 (UACC-257) was > 100 µM (inactive). The GI50 (HL-60) was > 100 µM (inactive), the GI50 (SF-268) was > 100 µM (inactive) and the GI50 (NCI-H460) was > 100 µM (inactive). The GI50 (UO-31) was > 100 µM (inactive), the GI50 (DMS-273) was > 100 µM (inactive) and the GI50 (SK-MEL-2) was > 100 µM (inactive). The GI50 (SK-OV-3) was > 100 µM (inactive), the GI50 (RXF 393) was > 89.1 µM (inactive) and the GI50 (SF-539) was > 100 µM (inactive). The GI50 (SN12C) was > 100 µM (inactive), the GI50 (UACC-62) was > 100 µM (inactive) and the GI50 (LOX IMVI) was > 100 µM (inactive). The GI50 (NCI-H522) was > 100 µM (inactive), the GI50 (OVCAR-4) was > 100 µM (inactive) and the GI50 (MCF7) was > 100 µM (inactive). For the same compound, the GI50 (SK-MEL-28) was > 100 µM (inactive), the GI50 (M19-MEL) was > 100 µM (inactive) and the GI50 (HOP-18) was > 100 µM (inactive). The GI50 (KM-20L2) was > 100 µM (inactive), the GI50 (CCRF-CEM) was > 72.4 µM (inactive) and the GI50 (HCC 2998) was > 100 µM (inactive). For the same compound, the GI50 (HOP-92) was > 100 µM (inactive), the GI50 (SW-620) was > 100 µM (inactive) and the GI50 (HCT-116) was > 100 µM (inactive). The GI50 (EKVX) was > 74.6 µM (inactive), the GI50 (XF498) was > 100 µM (inactive) and the GI50 (SK-MEL-5) was > 100 µM (inactive). The GI50 (U-251) was > 100 µM (inactive), the GI50 (SNB-78) was > 100 µM (inactive) and the GI50 (COLO 205) was > 100 µM (inactive). For the same compound, the GI50 (CAKI-1) was 77.8 µM (inactive), the GI50 (Malme-3M) was > 100 µM (inactive) and the GI50 (HCT-15) was greater than 100 µM. For the same compound, the GI50 (NCI-H226) was > 100 µM (inactive), the GI50 (MOLT-4) was > 100 µM (inactive) and the GI50 (SF-295) was > 100 µM (inactive). For the same compound, the GI50 (NCI/ADR-RES) was > 100 µM (inactive), the GI50 (SNB-19) was > 100 µM (inactive) and the GI50 (KM12) was > 100 µM (inactive). The GI50 (A549) was > 100 µM (inactive), the GI50 (OVCAR-3) was > 100 µM (inactive) and the GI50 (DLD-1) was > 100 µM (inactive). The GI50 (SNB-75) was > 100 µM (inactive).
`FC(F)(F)C1=NC(=NNc2nnc(-c3ccccc3)c(-c3ccccc3)n2)N=C(C(F)(F)F)C1` was tested, and the GI50 (NCI-H23) was 19.5 µM (inactive), the GI50 (OVCAR-8) was 25.8 µM (inactive) and the GI50 (DMS-114) was 6.14 µM (inactive). The GI50 (HT-29) was 16.6 µM (inactive), the GI50 (A498) was 11.6 µM (inactive) and the GI50 (HOP-62) was 13.4 µM (inactive). The GI50 (OVCAR-5) was 30.2 µM (inactive), the GI50 (K562) was 4.11 µM (inactive) and the GI50 (UACC-257) was 23.9 µM (inactive). For the same compound, the GI50 (RPMI-8226) was 12.2 µM (inactive), the GI50 (HL-60) was 5.22 µM (inactive) and the GI50 (SF-268) was 12.8 µM (inactive). The GI50 (NCI-H460) was 7.71 µM (inactive), the GI50 (UO-31) was 4.11 µM (inactive) and the GI50 (DMS-273) was 5.86 µM (inactive). For the same compound, the GI50 (SK-MEL-2) was 24.5 µM (inactive), the GI50 (SK-OV-3) was 60.4 µM (inactive) and the GI50 (RXF 393) was 7.57 µM (inactive). The GI50 (SF-539) was 32.9 µM (inactive), the GI50 (SN12C) was > 72.9 µM (inactive) and the GI50 (UACC-62) was 3.54 µM (inactive). The GI50 (LOX IMVI) was 12.7 µM (inactive), the GI50 (NCI-H522) was 9.51 µM (inactive) and the GI50 (OVCAR-4) was 13.1 µM (inactive). The GI50 (MCF7) was 13.5 µM (inactive), the GI50 (SK-MEL-28) was 35.8 µM (inactive) and the GI50 (M19-MEL) was 21.8 µM (inactive). The GI50 (HOP-18) was 50.2 µM (inactive), the GI50 (KM-20L2) was 16.8 µM (inactive) and the GI50 (CCRF-CEM) was 7.29 µM (inactive). The GI50 (HCC 2998) was 9.12 µM (inactive), the GI50 (HOP-92) was 15.8 µM (inactive) and the GI50 (SW-620) was 27.3 µM (inactive). The GI50 (HCT-116) was 11.6 µM (inactive), the GI50 (EKVX) was 10.2 µM (inactive) and the GI50 (XF498) was 20 µM (inactive). For the same compound, the GI50 (SK-MEL-5) was 15.8 µM (inactive), the GI50 (U-251) was > 29 µM (inactive) and the GI50 (SNB-78) was > 67.9 µM (inactive). The GI50 (COLO 205) was 6.08 µM (inactive), the GI50 (CAKI-1) was 27.2 µM (inactive) and the GI50 (Malme-3M) was > 100 µM (inactive). For the same compound, the GI50 (HCT-15) was 11 µM, the GI50 (NCI-H226) was 29.4 µM (inactive) and the GI50 (MOLT-4) was 5.51 µM (inactive). The GI50 (SF-295) was 8.2 µM (inactive), the GI50 (NCI/ADR-RES) was 67.6 µM (inactive) and the GI50 (SNB-19) was 35 µM (inactive). For the same compound, the GI50 (KM12) was 33.2 µM (inactive), the GI50 (A549) was 13.3 µM (inactive) and the GI50 (OVCAR-3) was > 30.7 µM (inactive). For the same compound, the GI50 (IGROV-1) was 21.5 µM (inactive), the GI50 (DLD-1) was 12.6 µM (inactive) and the GI50 (SNB-75) was 25.7 µM (inactive).

Source: ChEMBL document CHEMBL1201862, “PubChem BioAssay data set” (2004)
